Like-named read-outs stand apart in the source and are kept apart here.
What was measured:
[1] = system: HCV genotype 1a replicon cells Htat2ANeo; test: 1a Replicon Assay (cell-based anti-NS5a ELISA); settings: Hepatitis C virus, 72 h
Protocol: HCV genotype la replicon cells Htat2ANeo (University of Texas), containing neomycin phosphotransferase fusion protein and EMCV-IRES driven HCV polyprotein with cell culture adaptive mutations, and control cells, Et2AN.
Cells were cultured at 37° C./5% CO2 and split twice a week. G418 at 0.5 mg/ml and Blastocidin at 2 mg/ml were added to the culture medium but not the assay medium.
The culture medium consisted of DMEM with […] glucose and Glutamax (Gibco 61965-026) supplemented with 1× non-essential amino acids (Invitrogen 11140-035), 0.5 mg/ml G418 (Invitrogen 10131-027), 2 mg/ml Blastocidin (PAA) and 10% is Australian foetal calf serum (Invitrogen 10099-141).
Replicon and control cells were trypsinised and counted. Replicon cells were diluted to 90,000 cells/ml and 100 μl of this used to seed columns 2-4, […] and 10-12 of a black, clear bottom 96-well plate for every three compounds to be tested for IC50. Control cells were diluted to 60,000 cells/ml and 100 μl of this used to seed columns 1, 5 and 9 of the plate. Well H1 was left empty as the blank. Plates were then incubated at 37° C./5% CO2 for 24 h.
On the following day compound dilutions were prepared in medium at twice their desired final concentration in a clear round bottomed plate.
Controls and compounds were transferred from the dilution plate to the assay plates (containing the cells) at 100 μl/well in quadruplicate wells, one well containing control cells and 3 wells containing replicon cells.
Exception: no compound was added to row H of the plate and 100 μl of 1% DMSO was added to these instead. Plates were then incubated at 37° C. with 5% CO2 for 72 h. At the end of the incubation time, any reduction in cell viability was assayed and a cell-based enzyme linked immunosorbent assay (ELISA) was performed. The media/compound was removed from all wells and replaced with 100 μl/well serum-free media and 20 μl/well Cell Titre Blue (Promega G8081). Following incubation at 37° C./5% CO2 for 2 h plates were read on a microplate fluorometer (Molecular Devices) using an excitation of 570 nm and an emission of 590 nm The TD50, the concentration of drug required to reduce 50% of Cell Titre Blue relative to the DMSO controls, was calculated by plotting the fluorescence at 590 nm after substraction of background against drug concentration.
The media/Cell Titre Blue was removed and plates washed in PBS and gently tapped dry before addition of 50 μL per well of 75% acetone/25% methanol mixture for 3 minutes. The fixative was then discarded and wells were washed with PBS before addition of 100 μl/well of blocking solution (2% non-fat dry milk and 0.05% Tween-20 in 0.85% NaCl). Plates were then incubated at 37° C. in a shaking incubator for 60 min. Blocking solution was discarded and 50 μl of mouse anti-NS5a antibody (Virostat 1877) at 1:100 dilution in blocking buffer was added to all wells. Plates were incubated at 37° C. in a shaking incubator for 90 min Antibody was then discarded and plates were washed 4 times by immersion in 0.85% NaCl/0.05% Tween-20. After washing plates were tapped dry gently and 50 μl of secondary antibody (Dako P0260 Rabbit anti-mouse horseradish peroxidase) at 1:1000 dilution in blocking buffer was added to the wells. Plates were incubated at 37° C. in a shaking incubator for 60 min. Antibody was discarded and plates were washed 6 times by immersion in 0.85% NaCl/0.05% Tween-20 and once in PBS. Finally, 50 μl of substrate (SigmaFast ortho-phenylene diamine dihydrochloride (OPD)) was added per well and the colorimetric reaction was allowed to proceed in the dark for 5 to 15 minutes depending on the strength or the signal. The reaction was stopped by addition of 25 μl/well of 20% sulphuric acid. Plates were read on the SpectraMax microplate reader at 490 nm fixed wavelength. […]

[2] = system: HCV replicon cells Huh 9B (genotype 1b); test: 1b Replicon Assay (luciferase readout); type: cell-based; settings: Hepatitis C virus, Huh 9B replicon cells, 72 h, luciferase activity
Protocol: (§1) HCV replicon cells Huh 9B (ReBlikon), containing the firefly luciferase-ubiquitin-neomycin phosphotransferase fusion protein and EMCV-IRES driven HCV polyprotein with cell culture adaptive mutations.
Cells were cultured at 37° C./5% CO2 and split twice a week. G418 at 0.5 mg/ml was added to the culture medium but not the assay medium.
The culture medium consisted of DMEM with […] glucose and Glutamax (Gibco 61965-026) supplemented with 1× non-essential amino acids (Invitrogen 11140-035), 0.5 mg/ml G418 (Invitrogen 10131-027) and 10% Australian foetal calf serum (Invitrogen 10099-141).
(§2) Replicon cells were trypsinised and counted. Cells were diluted to 100,000 cells/ml and 100 μl used to seed one opaque white 96-well plate (for the replicon assay) and one flat-bottomed clear plate (for the tox assay) for every five compounds to be tested for IC50. Wells G12 and H12 were left empty in the clear plate as the blank. Plates were then incubated at 37° C./5% CO2 for 24 h.
(§3) On the following day compound dilutions were prepared in medium at twice their desired final concentration in a clear round bottomed plate. All dilutions have a final DMSO concentration of 1%.
(§4) Controls and compounds were transferred from the dilution plates to the assay plates (containing the cells) at 100 μl/well in duplicate wells.
(§5) Exception: no compound was added to wells A1 and A2 of either plate and 100 μl of 1% DMSO was added to these instead. Plates were then incubated at 37° C./5% CO2 for 72 h.
At the end of the incubation time, the cells in the white plate were washed in PBS (100 μL per well) and dried by tapping before addition of 204 per well of lysis buffer (25 mM tris-phosphate, 8 mM MgCl2, 1 mM DTT, 1% Triton X-100, 15% glycerol; pH to 7.8 using KH2PO4 prior to Triton X-100 and glycerol addition). Aliquots of substrate (23.5 mM beetle luciferin (Promega E1603), 26 mM ATP (Sigma O-2060) in […] Tris buffer pH 7.8) were stored at −80° C. Prior to use, required amount of luciferin was thawed and diluted 1:50 in luciferase assay buffer (20 mM Tricine (Sigma T-0377), 1.07 mM magnesium carbonate hydroxide (Sigma M-5671), 0.1 mM EDTA (Sigma E-5134), 2.67 mM MgSO4(BDH 101514Y), 33.3 mM dithiothreitol (Sigma 150460) pH 7.8).
After 5-60 min incubation in lysis buffer at room temperature, a plate was inserted into the luminometer and 100 μl luciferase assay reagent was added by the injector of the luminometer. The signal was measured using a 1 second delay followed by a 4 second measurement programme. The IC50, the concentration of the drug required for reducing the replicon level by 50% in relation to the untreated cell control value, was calculated from the plot of the percentage reduction of the luciferase activity vs. drug concentration.

[3] = system: HCV replicon cells Huh 9B; type: cell-based; settings: Huh 9B replicon cells, 72 h, methylene blue, total cell area reduced by 50%
Protocol: as §1, §2, §3, §4, §5
The clear plate was stained with 100 μA 0.5% methylene blue in 50% ethanol at room temperature for 1 h, followed by solvation of the absorbed methylene blue in 100 μl per well of 1% lauroylsarcosine. Absorbance of the plate was measured on a microplate spectrophotometer (Molecular Devices) and the absorbance for each concentration of compound expressed as a proportion of the relative DMSO control. The TD50, the is concentration of drug required to reduce the total cell area by 50% relative to the DMSO controls, was calculated by plotting the absorbance at 620 nm after background substraction against drug concentration.

[4] = read-out: pIC50 1a Replicon (converted)
[5] = read-out: pIC50 1b Replicon (converted)

SMILES	IC50 ([1]; read-out: HCV IC50 Elisa 1a) [nM]	IC50 [1, 4] [nM]	IC50 ([2]; read-out: HCV IC50 1b Replicon) [nM]	IC50 [2, 5] [nM]	HCV TD50 Replicon [3] [µM]
CC(C)(C)OC(=O)N[C@H](C(=O)N1CCC[C@H]1c1ncc(-c2ccc(-c3ccc(C(=O)Nc4ccc(CN5CCS(=O)(=O)CC5)cc4)cc3)cc2)[nH]1)c1ccccc1 [Example 1, Tert-butyl N-[(1S)-2-[(2S)-2-[5-[4-[4-[[4-[(1,1-dioxo-1,4-thiazinan-4-yl)methyl]phenyl]carbamoyl]phenyl]phenyl]-1H-imidazol-2-yl]pyrrolidin-1-yl]-2-oxo-1-phenyl-ethyl]carbamate]	41.4	41.7	0.01	0.0138	>25
COC(=O)N[C@@H](C)C(=O)N1CCC[C@H]1c1ncc(-c2ccc(-c3ccc(C(=O)Nc4ccc(CN5CCS(=O)(=O)CC5)cc4)cc3)cc2)[nH]1 [Example 4, Methyl N-[(1S)-2-[(2S)-2-[5-[4-[4-[[4-[(1,1-dioxo-1,4-thiazinan-4-yl)methyl]phenyl]carbamoyl]phenyl]phenyl]-1H-imidazol-2-yl]pyrrolidin-1-yl]-1-methyl-2-oxoethyl]carbamate]	25.9	25.7	1.18	1.17	22.44
COC(=O)N[C@@H](CO)C(=O)N1CCC[C@H]1c1ncc(-c2ccc(-c3ccc(C(=O)Nc4ccc(CN5CCS(=O)(=O)CC5)cc4)cc3)cc2)[nH]1 [Example 11, Methyl N-[(1S)-2-[(2S)-2-[5-[4-[4-[[4-[(1,1-dioxo-1,4-thiazinan-4-yl)methyl]phenyl]carbamoyl]phenyl]phenyl]-1H-imidazol-2-yl]pyrrolidin-1-yl]-1-(hydroxymethyl)-2-oxo-ethyl]carbamate]	19	19.1	1.13	1.12	>21
COC(=O)N[C@@H](C(=O)N1CCC[C@H]1c1ncc(-c2ccc(-c3ccc(C(=O)Nc4ccc(CN5CCS(=O)(=O)CC5)cc4)cc3)cc2)[nH]1)[C@H](C)O [Example 18, Methyl N-[(1R,2S)-1-[(2S)-2-[5-[4-[4-[[4-[(1,1-dioxo-1,4-thiazinan-4-yl)methyl]phenyl]carbamoyl]phenyl]phenyl]-1H-imidazol-2-yl]pyrrolidine-1-carbonyl]-2-hydroxy-propyl]carbamate]	–	–	126	126	>25
COC(=O)N[C@H](CO)C(=O)N1CCC[C@H]1c1ncc(-c2ccc(-c3ccc(C(=O)Nc4ccc(CN5CCS(=O)(=O)CC5)cc4)cc3)cc2)[nH]1 [Example 19, Methyl N-[(1R)-2-[(2S)-2-[5-[4-[4-[[4-[(1,1-dioxo-1,4-thiazinan-4-yl)methyl]phenyl]carbamoyl]phenyl]phenyl]-1H-imidazol-2-yl]pyrrolidin-1-yl]-1-(hydroxymethyl)-2-oxo-ethyl]carbamate]	–	–	43.2	43.7	21.4
COC(=O)N[C@@H](C(=O)N1CCC[C@@H]1c1ncc(-c2ccc(-c3ccc(C(=O)Nc4ccc(CN5CCS(=O)(=O)CC5)cc4)cc3)cc2)[nH]1)C(C)C [Example 27, methyl N-[(1R)-1-[(2R)-2-[5-[4-[4-[[4-[(1,1-dioxo-1,4-thiazinan-4-yl)methyl]phenyl]carbamoyl]phenyl]phenyl]-1H-imidazol-2-yl]pyrrolidine-1-carbonyl]-2-methyl-propyl]carbamate]	–	–	15.3	15.1	>25
COC(=O)N[C@H](C(=O)N1CCC[C@H]1c1ncc(-c2ccc(-c3cccc(C(=O)Nc4ccc(CN5CCS(=O)(=O)CC5)cc4)c3)cc2)[nH]1)C(C)C [Example 28, Methyl N-[(1S)-1-[(2S)-2-[5-[4-[3-[[4-[(1,1-dioxo-1,4-thiazinan-4-yl)methyl]phenyl]carbamoyl]phenyl]phenyl]-1H-imidazol-2-yl]pyrrolidine-1-carbonyl]-2-methyl-propyl]carbamate]	2080	2090	7.32	7.24	>25
COC(=O)N[C@@H](C)C(=O)N1CCC[C@H]1c1ncc(-c2ccc(-c3cccc(C(=O)Nc4ccc(CN5CCS(=O)(=O)CC5)cc4)c3)cc2)[nH]1 [Example 29, Methyl N-[(1S)-2-[(2S)-2-[5-[4-[3-[[4-[(1,1-dioxo-1,4-thiazinan-4-yl)methyl]phenyl]carbamoyl]phenyl]phenyl]-1H-imidazol-2-yl]pyrrolidin-1-yl]-1-methyl-2-oxo-ethyl]carbamate]	7620	7590	33.4	33.1	>25
CN(C)[C@@H](C(=O)N1CCCC[C@H]1c1ncc(-c2ccc(-c3ccc(C(=O)Nc4ccc(CN5CCS(=O)(=O)CC5)cc4)cc3)cc2)[nH]1)c1ccccc1 [Example 53, 4-[4-[2-[(2S)-1-[(2R)-2-(dimethylamino)-2-phenyl-acetyl]-2-piperidyl]-1H-imidazol-5-yl]phenyl]-N-[4-[(1,1-dioxo-1,4-thiazinan-4-yl)methyl]phenyl]benzamide]	324	324	0.82	0.813	–

From patent publication US20100215618A1, “NOVEL COMPOUNDS - 644” (Arrow Therapeutics Limited, priority 2009, published 2010)
